Measured values: patent US12577230B2, “2-(3-pyridin-2-yl-4-quinolin-4-yl-pyrazol-1-yl)- acetamide derivatives as inhibitors of transforming growth factor-beta receptor I/ALK5” (AGOMAB SPAIN S.L.U., priority 2020, dated 2026)

Columns and labels:
[1] = Determination of plasma stability in human plasma; assay type: in vitro ADME; conditions: 10 μM, 37° C.
Method: Determination of Plasma Stability of Some Compounds
Human plasma pooled from healthy donors extracted in citrate tubes was employed in the assay. Briefly, plates containing 10 μM compounds in plasma (total volume: 50 μL) were incubated at 37° C. at the different times (0, 30, 120 and 360 min). Then 100 μl Acetonitrile were added for precipitating plasma protein, and the plate was centrifuged at 46000 g for 60 min at 5° C. Supernatant was taken and analysed by UPLC/MS/MS for sample quantification. Stationary phase: Reverse phase Acquity UPLC® BEH C18 1.7 μm (2.1 mm×50 mm) (Waters). Mobile phase: 0.1% Formic acid water/0.1% formic acid in acetonitrile.
Flow: 0.6 ml/min. The chromatographic equipment employed was an UPL QSM Waters Acquity. Compound concentrations were calculated from the MS peak areas.

Human TGFβR-1 = biological target: T1, Human TGFβR-1 (Homo sapiens, UniProt P36897); assay: In vitro enzyme assay: inhibition of TGFβR-1 (ADP-Glo kinase assay); assay type: biochemical; conditions: TGFβR-1 kinase 50 ng/well, 50 μM ATP, 120 min RT
T1 construct: purchased Promega V4092
T1 sequence (P36897 34-503): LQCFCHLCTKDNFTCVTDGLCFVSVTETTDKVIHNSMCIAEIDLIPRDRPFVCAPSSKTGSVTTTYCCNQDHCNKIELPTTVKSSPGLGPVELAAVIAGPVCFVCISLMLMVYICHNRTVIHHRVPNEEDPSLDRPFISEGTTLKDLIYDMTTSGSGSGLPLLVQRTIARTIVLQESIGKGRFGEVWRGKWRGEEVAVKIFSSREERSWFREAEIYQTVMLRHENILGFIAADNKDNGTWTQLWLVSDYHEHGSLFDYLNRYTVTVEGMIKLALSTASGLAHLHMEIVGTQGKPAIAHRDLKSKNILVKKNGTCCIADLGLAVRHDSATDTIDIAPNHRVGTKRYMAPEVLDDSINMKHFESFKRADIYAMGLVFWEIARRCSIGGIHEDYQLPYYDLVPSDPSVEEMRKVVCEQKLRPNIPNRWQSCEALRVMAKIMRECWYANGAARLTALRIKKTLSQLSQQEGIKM
From the text: In the present application are used the following abbreviations, with the corresponding definitions: • AcOH: Acetic Acid • ACVR2B: activin A receptor, type IIB • ALKn: activin receptor-like kinase n • ATP: adenosin triphosphate • Boc2O: tert-butyl dicarbonate • Boc: tert-Butoxycarbonyl • Clint: Intrinsic clearance • DIPEA: N,N-Diisopropylethylamine • DMA: Dimethylacetamide • DMAP: 4-Dimethylaminopyridine • DMF: N,N-Dimethylformamide • DMSO: Dimethyl sulfoxide • EDCl: N-(3-Dimethylaminopropyl)-N′-ethylcarbodiimide) • Et3N: Triethylamine • EtOAc: Ethyl acetate • EtOH: ethanol • FBS: Fetal bovine serum • H: hour • HATU: 1-[Bis(dimethylamino)methylene]-1H-1,2,3-triazolo[4,5-b]pyridinium 3-oxide hexafluorophosphate • HOBT: Hydroxybenzotriazole • HPLC: High-performance liquid chromatography • ^1H-NMR: Proton nuclear magnetic resonance • K2EDTA: ethylenediaminetetracetic acid dipotassium salt • LC: Liquid chromatography • LiHMDS: Lithium bis(trimethylsilyl)amide • LLOQ: lower limit of quantification • MeCN: Acetonitrile • MeOH: Methanol • Min: minutes • MS: Mass spectroscopy • MTBE: Methyl tert-butyl ether • NBS: N-Bromosuccinimide • NaCMC: Sodium carboxymethyl cellulose • Rt: retention time • RT: room temperature • Sem: 2-(Trimethylsilyl)ethoxymethyl • TGFβ: transforming growth factor-β • THF: Tetrahydrofuran • THF:EtOH: Tetrahydrofuran:ethanol • UPLC: ultra high-performance liquid chromatography • UV: Ultraviolet Pharmacological Activity In Vitro Enzyme Assay: Inhibition of TGFβR-1 Human TGFβR-1 inhibition experiments were carried out in a white 384-microplate low flange (Corning 3572) with ADP-Glo kinase Assay Kit (Promega V9101) and TGFβR-1 Kinase Enzyme System (Promega V4092). Test compounds and standard Galunisertib (Cayman 15312), 50 ng/well TGFβR-1 kinase and 50 μM ATP were added in a final volume of 10 μL/well, using Reaction buffer supplied by kit as assay buffer. The reaction mixture was incubated in gentle shaking for 120 min at RT, after incubation of 10 μL of ADP-Glo Reagent was added and incubated in gentle shaking for 40 min at RT. 20 μL of Kinase Detection Reagent was added and plate was incubated in gentle shaking for 30 min at RT. Luminescence (1000 ms) was measured in Perkin Elmer EnSpire Multimode plate reader. Results

ALK-5 = biological target: T2, ALK-5 (Homo sapiens, UniProt P36897); assay: Determination of the intracellular TGF-beta kinase activity (ALK-5), AlphaLISA SureFire p-SMAD3 in A549 cells; assay type: cell-based; conditions: A549 cell line, TGF-β2 activated, p-SMAD3(Ser423/425)
T2 construct: endogenous in cells; host or cells: A549
T2 sequence (P36897 34-503): T1 sequence (P36897 34-503)
Method: Determination of the Intracellular TGF-Beta Kinase Activity (ALK-5)
The experiments were carried out in A549 cell line. 30000 cells were seeded in 200 μl of culture medium (Sigma D6046) supplemented with L-Glutamine (Sigma G7513), Penicillin/Streptomycin (Invitrogen 11058) and FBS (Sigma F9665) on a 96 wells microplate (Becton Dickinson 353072). After 16 hours medium was changed to serum free medium. Galunisertib, as inhibitor ligand (Cayman CAY-15312) and recombinant Human TGF-β2 (R&D Systems 302-B2-002) as activator of the ALK-5, were added in their corresponding wells and incubated following the instructions of the Alphascreen AlphaLISA@SureFire® Ultra™ p-SMAD3(Ser423/425) Kit (Perkin Elmer ALSU-PSM3-A500).

In the case of `Cc1cccc(-c2nn(CC(=O)Nc3cc(F)cc(C(=O)OCC4CC4)c3)cc2-c2ccnc3ccccc23)n1` [Comparative example 1, Cyclopropylmethyl 3-fluoro-5-(2-(3-(6-methylpyridin-2-yl)-4-(quinolin-4-yl)-1H-pyrazol-1-yl)acetamido)benzoate, reference compound], the “remaining percentage 0 min” value [1] is reported as 100%, the “remaining percentage 30 min” value [1] is reported as 100% and the “remaining percentage 120 min” value [1] is reported as 88%. For the same compound, the “remaining percentage 360 min” value [1] was 87%.
For `COC(=O)c1cc(Cl)cc(NC(=O)Cn2cc(-c3ccnc4ccccc34)c(-c3cccc(C)n3)n2)c1` [Comparative example 2, methyl 3-chloro-5-(2-(3-(6-methylpyridin-2-yl)-4-(quinolin-4-yl)-1H-pyrazol-1-yl)acetamido)benzoate, reference compound], the “remaining percentage 0 min” value [1] was 100%, the “remaining percentage 30 min” value [1] was 83% and the “remaining percentage 120 min” value [1] was 69%. The “remaining percentage 360 min” value [1] was 67%.
For `Cc1cccc(-c2nn(CC(=O)Nc3cc(F)cc(C(=O)OCCO)c3)cc2-c2ccnc3ccccc23)n1` [Comparative example 3, 2-hydroxyethyl 3-fluoro-5-(2-(3-(6-methylpyridin-2-yl)-4-(quinolin-4-yl)-1H-pyrazol-1-yl)acetamido)benzoate, reference compound], the “remaining percentage 0 min” value [1] was 100%, the “remaining percentage 30 min” value [1] was 99% and the “remaining percentage 120 min” value [1] was 96%. The “remaining percentage 360 min” value [1] was 73%.
Work on `Cc1cccc(-c2nn(CC(=O)Nc3cncc(C(=O)OCCN(C)C)c3)cc2-c2ccnc3ccccc23)n1` [Example 2, 2-(dimethylamino)ethyl 5-(2-(3-(6-methylpyridin-2-yl)-4-(quinolin-4-yl)-1H-pyrazol-1-yl)acetamido)nicotinate] yielded an IC50 (Human TGFβR-1) of under 100 nM.
With `Cc1cccc(-c2nn(CC(=O)Nc3ccc(C(=O)OCCN(C)C)cn3)cc2-c2ccnc3ccccc23)n1` [Example 3, 2-(dimethylamino)ethyl 6-(2-(3-(6-methylpyridin-2-yl)-4-(quinolin-4-yl)-1H-pyrazol-1-yl)acetamido)nicotinate] the IC50 (Human TGFβR-1) was 100 to 250 nM.
With `Cc1cccc(-c2nn(CC(=O)Nc3cc(F)cc(C(=O)OCCN4CCOCC4)c3)cc2-c2ccnc3ccccc23)n1` [Example 4, 2-morpholinoethyl 3-fluoro-5-(2-(3-(6-methylpyridin-2-yl)-4-(quinolin-4-yl)-1H-pyrazol-1-yl)acetamido)benzoate] the IC50 (ALK-5) was under 1000 nM and the IC50 (Human TGFβR-1) was 100 to 250 nM.
In the case of `Cc1cccc(-c2nn(CC(=O)Nc3cc(F)cc(C(=O)OCCN4CCN(C)CC4)c3)cc2-c2ccnc3ccccc23)n1` [Example 6, 2-(4-methylpiperazin-1-yl)ethyl 3-fluoro-5-(2-(3-(6-methylpyridin-2-yl)-4-(quinolin-4-yl)-1H-pyrazol-1-yl)acetamido)benzoate], the IC50 (ALK-5) is reported as under 1000 nM and the IC50 (Human TGFβR-1) is reported as 100 to 250 nM.
Compound `Cc1cccc(-c2nn(CC(=O)Nc3cc(F)cc(C(=O)OC4CCN(C)CC4)c3)cc2-c2ccnc3ccccc23)n1` [Example 8, 1-methylpiperidin-4-yl 3-fluoro-5-(2-(3-(6-methylpyridin-2-yl)-4-(quinolin-4-yl)-1H-pyrazol-1-yl)acetamido)benzoate] has an IC50 (Human TGFβR-1) of 100 to 250 nM.
In the case of `Cc1cccc(-c2nn(CC(=O)Nc3cc(F)cc(C(=O)O[C@H]4CN5CCC4CC5)c3)cc2-c2ccnc3ccccc23)n1` [Example 10, (R)-quinuclidin-3-yl 3-fluoro-5-(2-(3-(6-methylpyridin-2-yl)-4-(quinolin-4-yl)-1H-pyrazol-1-yl)acetamido)benzoate], the IC50 (Human TGFβR-1) is reported as under 100 nM.
With `Cc1cccc(-c2nn(CC(=O)Nc3cc(F)cc(C(=O)O[C@@H]4CN5CCC4CC5)c3)cc2-c2ccnc3ccccc23)n1` [Example 11, (S)-quinuclidin-3-yl 3-fluoro-5-(2-(3-(6-methylpyridin-2-yl)-4-(quinolin-4-yl)-1H-pyrazol-1-yl)acetamido)benzoate] the IC50 (Human TGFβR-1) was under 100 nM.
`Cc1cccc(-c2nn(CC(=O)Nc3cc(F)cc(C(=O)OC45CCN(CC4)CC5)c3)cc2-c2ccnc3ccccc23)n1` [Example 12, quinuclidin-4-yl 3-fluoro-5-(2-(3-(6-methylpyridin-2-yl)-4-(quinolin-4-yl)-1H-pyrazol-1-yl)acetamido)benzoate] gave an IC50 (Human TGFβR-1) of under 100 nM.
Work on `Cc1cccc(-c2nn(CC(=O)Nc3cc(F)cc(C(=O)OCCN4CCC4)c3)cc2-c2ccnc3ccccc23)n1` [Example 13, 2-(azetidin-1-yl)ethyl 3-fluoro-5-(2-(3-(6-methylpyridin-2-yl)-4-(quinolin-4-yl)-1H-pyrazol-1-yl)acetamido)benzoate] yielded an IC50 (Human TGFβR-1) of 100 to 250 nM.
Work on `Cc1cccc(-c2nn(CC(=O)Nc3cc(F)cc(C(=O)OCCN4CC4)c3)cc2-c2ccnc3ccccc23)n1` [Example 14, 2-(aziridin-1-yl)ethyl 3-fluoro-5-(2-(3-(6-methylpyridin-2-yl)-4-(quinolin-4-yl)-1H-pyrazol-1-yl)acetamido)benzoate] yielded an IC50 (Human TGFβR-1) of under 100 nM.
For `Cc1cccc(-c2nn(CC(=O)Nc3cc(F)cc(C(=O)OCCN)c3)cc2-c2ccnc3ccccc23)n1` [Example 16, 2-aminoethyl 3-fluoro-5-(2-(3-(6-methylpyridin-2-yl)-4-(quinolin-4-yl)-1H-pyrazol-1-yl)acetamido)benzoate], the IC50 (Human TGFβR-1) was under 100 nM.
`CCNCCOC(=O)c1cc(F)cc(NC(=O)Cn2cc(-c3ccnc4ccccc34)c(-c3cccc(C)n3)n2)c1` [Example 17, 2-(ethylamino)ethyl 3-fluoro-5-(2-(3-(6-methylpyridin-2-yl)-4-(quinolin-4-yl)-1H-pyrazol-1-yl)acetamido)benzoate] gave an IC50 (Human TGFβR-1) of under 100 nM.
In the case of `Cc1cccc(-c2nn(CC(=O)Nc3cc(F)cc(C(=O)OCCNC(C)C)c3)cc2-c2ccnc3ccccc23)n1` [Example 18, 2-(isopropylamino)ethyl 3-fluoro-5-(2-(3-(6-methylpyridin-2-yl)-4-(quinolin-4-yl)-1H-pyrazol-1-yl)acetamido)benzoate], the “remaining percentage 0 min” value [1] is reported as 100%, the “remaining percentage 30 min” value [1] is reported as 33.9% and the “remaining percentage 120 min” value [1] is reported as 11.1%. The “remaining percentage 360 min” value [1] was 0.1% and the IC50 (Human TGFβR-1) was under 100 nM.
With `Cc1cccc(-c2nn(CC(=O)Nc3cc(F)cc(C(=O)OCC4CCNCC4)c3)cc2-c2ccnc3ccccc23)n1` [Example 20, piperidin-4-ylmethyl 3-fluoro-5-(2-(3-(6-methylpyridin-2-yl)-4-(quinolin-4-yl)-1H-pyrazol-1-yl)acetamido)benzoate] the IC50 (Human TGFβR-1) was 100 to 250 nM.
